For `CS(=O)(=O)c1ccc(C(CC2CCCC2)C(=O)Nc2ccncn2)cc1[N+](=O)[O-]` (stereo not given), the melting point was 91 to 95 °C.
In the case of `CNc1c(F)c(O)c2c(=O)c(C(=O)O)cn(-c3cc(N)c(F)cc3F)c2c1C`, the melting point is reported as > 280 °C.
`CCC1(C)Cc2ccc(C)cc2C1=O` (stereo not given) gave a melting point of 25.5 to 27 °C.
`CCn1nc(C)sc1=Nc1ccc(N2CCN(c3ccc(OC)cc3)CC2)cc1` gave a melting point of 175 °C.
In the case of `CCC(=O)N(CC)c1cccc(-c2ccnc3c(C(=O)c4ccco4)cnn23)c1`, the melting point is reported as 165 to 167 °C.
For `Cc1c(C)c2c(c(C)c1N)CC(C)(CN1CCN(C(=O)CC(c3ccccc3)c3ccccc3)CC1)O2` (stereo not given), the melting point was 77 to 78 °C.
In the case of `CCOC(=O)C(=O)N(c1ccccc1N)C(C)(C)C`, the melting point is reported as 64 to 65 °C.
Work on `O=C1c2ccc(Cl)cc2OCN1CCO[N+](=O)[O-]` yielded a melting point of 86 to 88 °C.
`C[C@]1(CN2CCN(Nc3ccc(C(F)(F)F)cc3)CC2)Cn2cc([N+](=O)[O-])nc2O1` showed a melting point of 192 to 195 °C.
For `CCOC(=O)c1ncn2c1[C@@H]1CCCN1C(=O)c1c-2ccc(F)c1F`, the melting point was 199 to 200 °C.
Compound `CCCCc1nc2c(N)nc3ccccc3c2n1CCCCCCCCNC(=O)Nc1ccccc1` has a melting point of 153 to 155 °C.
Work on `COc1ccc(-c2cc(F)cc3c2OC(CN)C3)c(OC)c1` (stereo not given) yielded a melting point of 141 to 143 °C.
For `CNC(=O)ON=C1SCC(=O)N1CCOC`, the melting point was 153 to 155 °C.
With `COC1(OC)CCN(c2cc3c(cc2F)c(=O)c(C(=O)O)cn3-c2ccc(F)cc2F)C1` the melting point was 228 to 230 °C.
For `Clc1nc(Cl)c(-c2ccccc2)c(-c2ccccc2)n1`, the melting point was 144 to 146 °C.
For `FC(F)(F)c1cc(Nc2nc3ccccc3o2)cc(C(F)(F)F)c1`, the melting point was 178 to 180 °C.
`Cc1c(C(=O)Nc2ccc(N3CCN(CCO)CC3)c(C#N)c2)cnn1-c1ccc(F)c(Cl)c1` gave a melting point of 191 °C.
`CN(C)Cc1ccc(CSCCNc2ncc(Cc3ccn(C)c(=O)c3)c(=O)[nH]2)o1` gave a melting point of 129 to 132 °C.
`CN1N=C(c2ccc3c(c2)N(S(C)(=O)=O)CCO3)CCC1=O` gave a melting point of 162 to 165 °C.
Compound `COc1ccc2c(c1)C(C)(Cl)C(=S)N2` (stereo not given) has a melting point of 202 to 204 °C.
`Oc1ccc2c(c1)CCCC(c1ccccc1)=C2c1ccc(OCCCCCCSCCCC(F)(F)C(F)(F)F)cc1` gave a melting point of 166 °C.
Work on `COc1cc(C(F)(F)F)nc(NC(=O)Oc2ccccc2)n1` yielded a melting point of 85 to 88 °C.
Compound `NC(=O)C1CCc2[nH]c3ccc(OC(F)(F)F)cc3c2C1` (stereo not given) has a melting point of 177 to 178 °C.
For `O=C1CCN(Cc2ccccc2)C(=O)C1=C1SCCS1`, the melting point was 148 to 150 °C.
Work on `CC(=O)NC1(c2ccc(C(C)=O)cc2)CC1` yielded a melting point of 128 to 131 °C.
With `N#Cc1c(-c2cccc(N)c2)cc(-c2ccccc2O)nc1NC(=O)C1CCCCC1` the melting point was 236 to 238 °C.
Compound `CC(=O)c1cc([N+](=O)[O-])c(Cl)c([N+](=O)[O-])c1` has a melting point of 86 to 86.5 °C.
For `CN1C(=O)C(c2cccc(Br)c2)(c2cnn(CC(F)(F)F)c2)N=C1N` (stereo not given), the melting point was 80 to 82 °C.
For `N#CCC(=O)Nc1ccc(S(=O)C(F)(F)F)cc1` (stereo not given), the melting point was 164 to 165 °C.
For `Cc1nn(C)c(C2=NC(C)C(C)N2)c1N` (stereo not given), the melting point was 250 °C.
`Clc1nn(-c2cccnc2)cc1NCC1CC1` showed a melting point of 82 to 83 °C.
Work on `CCN(C(=O)N1CCN(c2cc(OC)cc(OC)c2)CC1)c1nc2ccccc2nc1OC` yielded a melting point of 129 to 130 °C.
`CC(=O)Oc1nn(-c2ccc(C)cc2)c(=O)c2c1Nc1cc(Cl)ccc1C2` showed a melting point of 238 to 240 °C.
`CN(C)c1ccc2c(c1)C(=O)N(c1ccc3ccsc3c1)C2` showed a melting point of 195 to 197 °C.
With `COc1ccccc1N1CCN(c2nc3c(cc2F)c(=O)c(C(=O)O)cn3-c2ccc(F)cc2)CC1` the melting point was 272 to 273 °C.
`COC(=O)c1ccc(/C=C(\C)c2ccc3c(c2)SCCCN3C)cc1` showed a melting point of 97 to 98 °C.
With `CC(=O)N1CCC(CCC(=O)c2ccc3c(c2)CCN3c2ccncc2)CC1` the melting point was 157 to 158 °C.
With `Cc1cccc(COc2cccc3c2CN(C2CCC(=O)NC2=O)C3=O)c1` (stereo not given) the melting point was 244 to 246 °C.
For `C=C(C)Cc1cc(NC(C)=O)c(C)c(C)c1O`, the melting point was 149 to 151 °C.
For `CC[C@H](C)C(OCc1ccccc1)[C@H]1[C@H]([N+](=O)[O-])[C@H](c2ccsc2)N[C@@H]1C(=O)NCCC(=O)O` (stereo not given in full), the melting point was 145 to 146 °C.
`COC(=O)c1cn(-c2ncccn2)cc1C` gave a melting point of 108 °C.
For `CC(C)(C)C(=O)OC1CC(=O)C2(C)CCC3C(CCC4=CC(=O)CCC43C)C12` (stereo not given), the melting point was 148 to 150 °C.
Compound `Cc1ccc(C=CC(=O)c2ccc3c(c2)C(C)(C)CCC3(C)C)cc1` has a melting point of 153 to 154 °C.
For `CC(C)(C)OC(=O)C(CCC(N)=O)N1Cc2c(OCc3ccc(CN4C5CCC4COC5)cc3)cccc2C1=O` (stereo not given), the melting point was 243 to 245 °C.
In the case of `CC1(C)Oc2ccncc2[C@@H](N2CCCC2=O)[C@@H]1O` (relative stereo), the melting point is reported as 253 °C.
Compound `N#Cc1ccc(N2C(=O)C3=CCCN3C2=O)c2ccccc12` has a melting point of 230 to 232 °C.
For `CCOC(=O)C(OCc1ccc(Cl)cc1)(C(F)(F)F)C(F)(F)F`, the melting point was 33 °C.
For `O=C(c1ccc(Cl)cc1)c1sc2cc(O)ccc2c1-c1ccccc1`, the melting point was 222 °C.
For `O=C(O)CCCn1nnnc1S`, the melting point was 90 to 95 °C.
Compound `CC(=CC(=O)O)C[N+](=O)[O-]` has a melting point of 85 °C.
Work on `CC(C)(c1ccc(N)cc1)c1ccc(N)cc1` yielded a melting point of 130 to 132 °C.
Compound `CCO[C@@H]1C[C@@H](C(=O)NC)N(S(=O)(=O)c2ccc(Cl)c(CBr)c2Cl)C1` has a melting point of 122 °C.
For `CC(=O)Nc1ncnc2[nH]nc(C#N)c12`, the melting point was > 360 °C.
Work on `C#CCOc1cc(-n2nc3n(c2=O)CCCN3)c(F)cc1Cl` yielded a melting point of 172 to 174 °C.
`CC1CC(=O)NN=C1c1ccc(NC(=O)C(C)(C)C#N)cc1` (stereo not given) gave a melting point of 225 to 227 °C.
`CCN(CC)C(=O)Oc1c2c(nn1-c1ccc(F)cc1)CCc1cc(F)ccc1-2` gave a melting point of 141 to 142 °C.
`CCCCCCOc1ccc(C(=O)Nc2ccc(-n3nc(C(F)(F)F)cc3C(F)(F)F)cc2)cc1` gave a melting point of 153 to 155 °C.
Compound `COC(=O)c1ccc(-c2ccc(-c3ccc4c(c3)C(C)(C)CCC4(C)C)s2)cc1` has a melting point of 126 to 129 °C.
For `CCC(=O)N1CCC(NC(=O)Nc2cccc(F)c2)CC1`, the melting point was 158 to 164 °C.
For `N#Cc1ccc2c(c1)Cc1cc(C#N)ccc1-2`, the melting point was 282 to 284 °C.
`COc1ccccc1CNC(=O)c1oc(=O)c2ncccc2c1-c1ccc(C)cc1` showed a melting point of 189 to 190 °C.
`CCOC(=O)c1c(C)nc(N(C)N)c([N+](=O)[O-])c1Cl` showed a melting point of 159 to 161 °C.
`O=c1c(C2CCCC2)coc2cc(O)cc(Cl)c12` gave a melting point of 282 to 284 °C.
In the case of `CC[C@H](COC)n1cc(Cl)nc(N2CCc3cc(OC)cc(C)c32)c1=O`, the melting point is reported as 62 to 64 °C.
In the case of `CC1(C)Oc2ccc(C#N)cc2C(Oc2ccnnc2)C1(C)O` (stereo not given), the melting point is reported as 103 to 105 °C.
For `C#CCCc1c(C)c(OC)c(C)c(C)c1OC`, the melting point was 54 °C.
Work on `Cc1nc2cc(S(=O)(=O)n3c(CCCC(=O)O)cc4nc(Cl)ccc43)ccc2s1` yielded a melting point of 173 °C.
Work on `COc1cc(C=CC(=O)CC(=O)C(F)(F)F)ccc1O` yielded a melting point of 97 to 100 °C.
`CCOC(=O)c1ccc(-c2nc(COc3ccc(COc4nn(-c5ccccc5)cc4C=O)cc3OC)c(C)o2)s1` showed a melting point of 156 to 157 °C.
`CCCNC1CCc2nc(N)sc2C1` (stereo not given) gave a melting point of 145 to 150 °C.
For `CCCCOc1cc(C)c(O)cc1C`, the melting point was 43 to 45 °C.
Compound `Cc1cn(C)cc(-c2cccc(C(F)(F)F)c2)c1=O` has a melting point of 130 to 131 °C.
For `CCCCc1nc2ccccc2n1Cc1ccc(C(=O)O)cc1F`, the melting point was 224 to 226 °C.
With `CN1C(=O)OC(C)(C)c2cc(-c3cccc(Br)c3)ccc21` the melting point was 142 to 143 °C.
Work on `CCCn1nc(C)c(C#N)c1N` yielded a melting point of 104 to 105 °C.
In the case of `CCOC(=O)C=C(C)C=CC=C(C)C=Cc1c(C)cc(OC)c(C)c1Cl`, the melting point is reported as 106 to 107 °C.
With `O=[N+]([O-])c1cnc(Sc2cncc(Cl)n2)s1` the melting point was 108 to 110 °C.
`CCSC1OC(CO)C(OC2OC(CO)C(O)C(O)C2O)C(O)C1O` (stereo not given) showed a melting point of 191 to 192 °C.
For `N#Cc1cnn2c(-c3cccnc3)ccnc12`, the melting point was 258 to 260 °C.
With `CCOc1cccc(-c2cnc3[nH]cc(C(=O)C(C)(C)C)c3n2)c1` the melting point was 195 to 196 °C.
With `CC1(C)CS(=O)(=O)c2sc(S(N)(=O)=O)cc2C1O` (stereo not given) the melting point was 172 to 174 °C.
In the case of `CC(=O)NNc1ccc([N+](=O)[O-])cc1`, the melting point is reported as 207 to 209 °C.
`CCCCCc1c(C(C)C)nc(C(C)C)c(CO)c1-c1ccccc1O` showed a melting point of 126 °C.
For `CCCOc1ccccc1-c1nc2c(C(=O)NCC)cccc2c(=O)[nH]1`, the melting point was 161 to 162 °C.
With `O=C(O)C1(Cc2ccccc2)CCN(Cc2ccccc2)CC1` the melting point was 262 °C.
`COc1cc2c(cc1Nc1ncc(Cl)c(N[C@H]3[C@@H](C(N)=O)[C@@H]4C=C[C@H]3C4)n1)CCN(CC(C)O)CC2` (stereo not given in full) showed a melting point of 120 °C.
Compound `COc1ccccc1C(=O)c1cccc2c1ccn2S(=O)(=O)c1ccc(C)cc1` has a melting point of 154 °C.
With `CC(=O)Nc1ccc2c(c1)C(=O)CC1(CCN(Cc3ccc([N+](=O)[O-])cc3)CC1)O2` the melting point was > 250 °C.
`CCOC(=O)c1cn(-c2ccc(C(F)(F)F)cn2)nc1C(C)C` showed a melting point of 94 to 95 °C.
In the case of `Cn1cc([C@H]2CC[C@@H](N3CCN(c4cc(Br)cc5cccnc45)CC3)CC2)c2cc(F)ccc21`, the melting point is reported as 215 to 217 °C.
With `O=C(NCc1ccc(Cl)cc1)c1cn(-c2ccccc2)c2oc(CCl)cc2c1=O` the melting point was 207 to 209 °C.
Work on `O=C1c2ccccc2C(=O)N1CC(O)Cn1ccnc1[N+](=O)[O-]` (stereo not given) yielded a melting point of 213 to 214 °C.
In the case of `O=C(Cc1ccc2c(c1)OCO2)N[C@H]1CC[C@H](CCN2CCN(c3nccc4c3CCO4)CC2)CC1`, the melting point is reported as 212 °C.
With `COc1cc(C(=O)Cc2ccccc2C)cc([N+](=O)[O-])c1O` the melting point was 150 to 151 °C.
With `CCCNC(=O)NS(=O)(=O)c1ccccc1-c1ccc(Cn2c(CCC)nc(C)c2C(=S)OCC)cc1` the melting point was 160 to 165 °C.
Work on `CC(C(=O)O)N(O)C(C)(C)C` (stereo not given) yielded a melting point of 73 to 74 °C.
Work on `CCN(c1cccc2cc(C(=O)NCCSC(c3ccccc3)(c3ccccc3)c3ccccc3)[nH]c12)S(=O)(=O)c1cccs1` yielded a melting point of 58 to 61 °C.
For `CC(C)(C)C(=O)C(CSc1ccc(Cl)cc1)n1cncn1` (stereo not given), the melting point was 67 °C.
Compound `COc1ccc(-c2nc3cnccc3[nH]2)c(OCCCCl)c1` has a melting point of 174 to 176 °C.
In the case of `COC(=O)C1(C(F)(F)CCCCCOc2ccc(Cl)cc2)CO1` (stereo not given), the melting point is reported as 54 to 55 °C.
